The values below come from BindingDB's records for patent US12545673 (TSD Life Sciences, 2026).

The target in this assay is Mitogen-activated protein kinase kinase kinase 9 (Homo sapiens, UniProt P80192). Nature of the assay: Evaluation of Inhibitory Activity of Enzyme Units.

Usually IC50 stands for the concentration that inhibits the measured activity by half. The low end stands for greater potency, the high end for weaker potency.

Chain of Mitogen-activated protein kinase kinase kinase 9 (P80192 whole entry): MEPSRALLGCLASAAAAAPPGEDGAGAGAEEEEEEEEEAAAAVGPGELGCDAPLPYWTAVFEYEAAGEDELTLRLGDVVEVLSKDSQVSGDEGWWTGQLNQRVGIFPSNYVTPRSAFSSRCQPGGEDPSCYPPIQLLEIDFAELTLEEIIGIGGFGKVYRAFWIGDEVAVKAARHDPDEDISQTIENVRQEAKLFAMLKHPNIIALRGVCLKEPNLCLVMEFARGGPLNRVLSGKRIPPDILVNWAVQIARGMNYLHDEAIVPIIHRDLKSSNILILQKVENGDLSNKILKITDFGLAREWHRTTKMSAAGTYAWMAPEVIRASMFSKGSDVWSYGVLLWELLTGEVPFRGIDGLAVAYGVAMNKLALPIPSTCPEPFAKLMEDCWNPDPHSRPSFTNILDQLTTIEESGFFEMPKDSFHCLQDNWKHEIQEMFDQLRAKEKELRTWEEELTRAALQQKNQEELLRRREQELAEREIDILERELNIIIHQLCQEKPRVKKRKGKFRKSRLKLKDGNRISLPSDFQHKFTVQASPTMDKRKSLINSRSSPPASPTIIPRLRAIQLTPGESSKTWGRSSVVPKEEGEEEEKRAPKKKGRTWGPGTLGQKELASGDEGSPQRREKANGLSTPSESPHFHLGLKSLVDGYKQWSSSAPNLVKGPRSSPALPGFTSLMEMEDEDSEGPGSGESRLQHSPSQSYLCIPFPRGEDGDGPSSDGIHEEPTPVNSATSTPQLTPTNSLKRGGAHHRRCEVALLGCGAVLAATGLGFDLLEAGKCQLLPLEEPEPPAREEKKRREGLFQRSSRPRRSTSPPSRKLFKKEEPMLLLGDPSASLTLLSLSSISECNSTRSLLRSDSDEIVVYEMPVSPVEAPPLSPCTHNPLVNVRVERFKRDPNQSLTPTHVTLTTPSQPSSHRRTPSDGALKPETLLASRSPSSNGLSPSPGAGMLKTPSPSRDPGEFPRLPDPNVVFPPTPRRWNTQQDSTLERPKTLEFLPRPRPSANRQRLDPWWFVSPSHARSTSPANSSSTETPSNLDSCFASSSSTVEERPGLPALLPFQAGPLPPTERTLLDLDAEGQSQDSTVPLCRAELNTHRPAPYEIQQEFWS

For `CCS(=O)(=O)N1CC[C@H](Nc2c(Br)cnc3nc(-c4cc(C)n(-c5ccc(OCCN6CCOCC6)cc5)c4C)[nH]c23)C1` [US12545673, Example 4], the IC50 was 56 nM.
